Data from patent US10766899B2, “Methods for preparing substituted imidazo[4,5-b]pyrazines” (Cytokinetics, Inc., priority 2006, dated 2020).
Several values for one entry are separate records, joined by “and”; a condition that tells them apart may be missing. Equal values may be shown once.

Test system: SKM MF
Experiment: SKM MF AC1.4: ATPase of skeletal sarcomeric proteins (actin, tropomyosin, troponin complex, myosin), PK/LDH coupled enzyme system
Type: biochemical
Conditions: screen at pCa=6.5, † mean value, ‡ median value
Method: For example, test compounds can be assayed in a highly parallel fashion by using multiwell plates by placing the compounds either individually in wells or testing them in mixtures. Assay components including the target protein complex, coupling enzymes and substrates, and ATP can then be added to the wells and the absorbance or fluorescence of each well of the plate can be measured with a plate reader.
In some embodiments, the method uses a 384 well plate format and a 25 μL reaction volume. A pyruvate kinase/lactate dehydrogenase coupled enzyme system (Huang T G and Hackney D D. (1994) J Biol Chem 269(23):16493-501) can be used to measure the rate of ATP hydrolysis in each well. As will be appreciated by those in the art, the assay components are added in buffers and reagents. The incubation periods can be optimized to give adequate detection signals over the background. The assay can be done in real time giving the kinetics of ATP hydrolysis which increases the signal to noise ratio of the assay.
Actin was purified by first preparing an ether powder of cardiac muscle (Zot H G and Potter J D. (1981) Preparative Biochemistry 11:381-395) as described below. Subsequently, actin was cycled between the filamentous and soluble state through rounds of centrifugation and dialysis (Spudich J A and Watt S. (1971) J. Biol. Chem. 246:4866-4871). It was stored in the filamentous state at 4° C.
Tropomyosin was extracted from the ether powder and separated from the other proteins based on pH dependent precipitations followed by successive ammonium sulfate cuts at 53% and 65% (Smillie L B. (1981) Methods Enzymol 85 Pt B:234-41). The troponins were isolated as an intact complex of TnC, TnT, and TnI. Ether powder is extracted in a high salt buffer. Successive ammonium sulfate cuts of 30% and 45% were done; the precipitate was solubilized by dialysis into a low salt buffer and then further purified on a DEAE Toyopearl column with a 25-350 mM KCl gradient.
Just prior to screening, the actin, tropomyosin, and troponin complex are mixed together in the desired ratio (e.g., 7:1:1) to achieve maximal calcium regulation of the actin filament. The screen is conducted at a pCa=6.5. This calcium concentration is in the physiological range during muscle contraction.
To measure the generation of ADP during the reaction, a pyruvate kinase/lactate dehydrogenase/NADH coupled enzyme system (PK/LDH) is added to the actin. The myosin is kept separately. The plates are read in real time so that kinetic curves are obtained. These compounds are in DMSO and were already spotted onto the bottoms of 384 well plates at 10 to 40 μg/ml final concentration.
• 1. Obtain ˜1000 g skeletal muscle, such as rabbit skeletal muscle. • 2. Grind twice; extract with 2 L solution A for 15 min while stirring; add 4 L cold H2O, filter through gauze; dilute with cold H2O to ionic strength of 0.04, (about 10-fold); let settle for 3 h; collect precipitate at 7,000 rpm in GSA rotor for 15 min. • 3. Disperse pellet in 220 ml solution B; dialyze overnight against 6 L solution C; slowly add ˜400 ml equal volume cold distilled H2O; stir for 30 min; centrifuge at 10,000 rpm for 10 min in GSA rotor. • 4. Centrifuge supernatant at 19,000 rpm for 1 h. • 5. Dilute supernatant to ionic strength of 0.04 (˜8-fold); let myosin settle overnight; collect about 5-6 L fluffy myosin precipitate by centrifuging at 10,000 rpm for 10 min in GSA rotor. • 6. Resuspend pellet in minimal volume of solution G; dialyze overnight against 2 L solution D; centrifuge at 19,000 rpm for 2 h, in cellulose nitrate tubes; puncture tubes and separate myosin from fat and insoluble pellet. • 7. Dilute supernatant to 5-10 mg/ml and dialyze against solution E extensively, load onto DEAE-sephadex column. • 8. […]

Compound	SKM MF AC1.4	other results
CSc1cnc2nc(O)n(Cc3ccccc3)c2n1 [1-benzyl-6-(methylthio)-1H-imidazo[4,5-b]pyrazin-2-ol]	22.6 µM	
CCC(CC)n1c(O)nc2ncc(C(F)(F)F)nc21 [1-(pentan-3-yl)-6-(trifluoromethyl)-1H-imidazo[4,5-b]pyrazin-2-ol]	10.4^‡ μM	SKM MF AC1.4 (listed as 1-(ethylpropyl)-6-(trifluoromethyl)imidazo[4,5-b]pyrazin-2-ol): 10.37 µM; SKM MF AC1.4 (listed as 1-(pentan-3-yl)-6-(trifluoromethyl)-1H-imidazo[4,5-b]pyrazin-2(3H)-one): 10.4^‡ μM
CCC(CC)n1c(O)nc2ncc(N(C)C)nc21 [6-(dimethylamino)-1-(pentan-3-yl)-1H-imidazo[4,5-b]pyrazin-2-ol]	2.2 µM and 2.79 µM	
CCC(CC)n1c(O)nc2ncc(C)nc21 [6-methyl-1-(pentan-3-yl)-1H-imidazo[4,5-b]pyrazin-2-ol]	0.53 µM	
C[C@@H](c1ccccc1)n1c(O)nc2ncc(C3=CCCCC3)nc21 [(S)-6-cyclohexenyl-1-(1-phenylethyl)-1H-imidazo[4,5-b]pyrazin-2-ol]	31.0 µM	
C[C@@H](CN1CCOCC1)n1c(O)nc2ncc(Br)nc21 [(S)-6-bromo-1-(1-morpholinopropan-2-yl)-1H-imidazo[4,5-b]pyrazin-2-ol]	>49 µM	
CC#Cc1cnc2nc(O)n(C(CC)CC)c2n1 [1-(pentan-3-yl)-6-(prop-1-ynyl)-1H-imidazo[4,5-b]pyrazin-2-ol]	>49 µM	
CC(C)C[C@H](CN1CCOCC1)n1c(O)nc2ncc(Br)nc21 [1-[(1R)-3-methyl-1-(morpholin-4-ylmethyl)butyl]-6-bromoimidazo[4,5-b]pyrazin-2-ol]	0.5 µM	
1-(ethylpropyl)-6-(1-methylvinyl)imidazo[4,5-b]pyrazin-2-ol	0.6 µM	
6-(1H-1,2,3-triazol-4-yl)-1-(ethylpropyl)imidazo[4,5-b]pyrazin-2-ol	46.64 µM	
CCC(CN(C)C)n1c(O)nc2ncc(Br)nc21 (centres unmarked) [6-bromo-1-(1-(dimethylamino)butan-2-yl)-1H-imidazo[4,5-b]pyrazin-2-ol]	43.8 µM	
C/C=C/c1cnc2nc(O)n(C3CCCCC3)c2n1 [(E)-1-cyclohexyl-6-(prop-1-enyl)-1H-imidazo[4,5-b]pyrazin-2-ol]	6.1 µM	
Oc1nc2ncc(Br)nc2n1C1CCCCC1 [6-bromo-1-cyclohexyl-1H-imidazo[4,5-b]pyrazin-2-ol]	10.4 µM	
CC(C)(C)n1c(O)nc2ncc(Br)nc21 [6-bromo-1-tert-butyl-1H-imidazo[4,5-b]pyrazin-2-ol]	0.8 µM	
CCC(CC)n1c(O)nc2nccnc21 [1-(pentan-3-yl)-1H-imidazo[4,5-b]pyrazin-2-ol]	16.0^† μM	
CSc1cnc2nc(O)n([C@H](C)c3ccccc3)c2n1 [(R)-6-(methylthio)-1-(1-phenylethyl)-1H-imidazo[4,5-b]pyrazin-2-ol]	2.9 µM	
C/C=C\c1cnc2nc(O)n(C(CC)CC)c2n1 [(Z)-1-(pentan-3-yl)-6-(prop-1-enyl)-1H-imidazo[4,5-b]pyrazin-2-ol]	0.6 µM	
CCC(C(=O)N1CCOCC1)n1c(O)nc2ncc(Br)nc21 (centres unmarked) [2-(6-bromo-2-hydroxy-1H-imidazo[4,5-b]pyrazin-1-yl)-1-morpholinobutan-1-one]	>49 µM	
CSc1cnc2nc(O)n([C@@H](C)c3ccccc3)c2n1 [(S)-6-(methylthio)-1-(1-phenylethyl)-1H-imidazo[4,5-b]pyrazin-2-ol]	1.1 µM	
CC[C@H](C)n1c(O)nc2ncc(Br)nc21 [(S)-6-bromo-1-sec-butyl-1H-imidazo[4,5-b]pyrazin-2-ol]	0.8 µM	
CC(C)(CN1CCOCC1)n1c(O)nc2ncc(Br)nc21 [6-bromo-1-(2-methyl-1-morpholinopropan-2-yl)-1H-imidazo[4,5-b]pyrazin-2-ol]	16.4^‡ μM	SKM MF AC1.4 (listed as 1-(1,1-dimethyl-2-morpholin-4-ylethyl)-6-bromoimidazo[4,5-b]pyrazin-2-ol): 19.11 µM; SKM MF AC1.4 (listed as 6-bromo-1-(2-methyl-1-morpholinopropan-2-yl)-1H-imidazo[4,5-b]pyrazin-2(3H)-one): 16.4^‡ μM
C#Cc1cnc2nc(O)n([C@H](CC)CN3CCOCC3)c2n1 [1-[(1R)-1-(morpholin-4-ylmethyl)propyl]-6-ethynylimidazo[4,5-b]pyrazin-2-ol]	0.13 µM	
